According to patent US9440982B2 (Eolas Therapeutics, Inc., priority 2012, dated 2016):
Like-named read-outs stand apart in the source and are kept apart here. Each block holds one compound with its values, some of them ahead of it.

Columns and labels:
[1] = target: T1, OX1 (Homo sapiens, UniProt O43613); assay: Orexin receptor cell-based functional assay, [Ca2+]i by FLIPR, CHO-OX1 cells
T1 construct: expressed in transfected cells; host or cells: CHO (CHO-OX1, kept under selection antibiotic)
T1 sequence (O43613 1-425): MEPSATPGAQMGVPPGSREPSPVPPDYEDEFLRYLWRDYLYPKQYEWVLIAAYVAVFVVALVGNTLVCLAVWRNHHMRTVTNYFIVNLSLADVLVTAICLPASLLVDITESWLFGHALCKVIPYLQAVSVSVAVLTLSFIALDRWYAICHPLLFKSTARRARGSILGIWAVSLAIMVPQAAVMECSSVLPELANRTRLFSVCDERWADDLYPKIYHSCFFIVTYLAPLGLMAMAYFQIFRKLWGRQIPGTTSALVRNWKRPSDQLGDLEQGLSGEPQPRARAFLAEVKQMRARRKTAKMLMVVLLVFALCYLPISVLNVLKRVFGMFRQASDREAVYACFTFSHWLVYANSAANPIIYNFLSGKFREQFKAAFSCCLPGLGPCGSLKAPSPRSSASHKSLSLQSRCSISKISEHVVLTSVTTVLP
Summary of the method: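 Antagonist mode FLIPR calcium read in CHO-OX1 and CHO-OX2 lines. Test compounds, dosed 0.1 nM-10 μM, preincubated 30 min after 37° C dye loading with 2.5 mM probenecid (calcium4 for 30 min or calcium6 for 2 h).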

[2] = tested on: Hcrt-R1 WT and KO mice; assay: Nicotine self-administration assay (mice), with food self-administration; type: in vivo; conditions: for food self-administration (SA): KO and WT mice, systemic administration 30 min prior to the SA session; for nicotine SA: doses 0, 5 and 10 mg/kg
Description: To generate Hcrt-R1^+/+ and […] mice, breeding pairs of male and female Hcrt-R1^+/− mice that were backcrossed >10 generations on a C57BL/6 background were obtained from Jackson Laboratory (Bar Harbor, Me.). For all experiments, mice weighing 25-35 g were housed in groups of 2-3 per cage, in a temperature-controlled vivarium under a reversed 12-h light/dark cycle (lights off at 8 am). Food and water were provided ad libitum until behavioral training commenced. During training, mice were food-restricted to maintain ˜85-90% of their free-feeding body weight. Behavioral testing occurred during the dark portion of the light/dark cycle between the hours of 9 am-1 pm, during the early portion of the dark phase of the cycle. All procedures were conducted in strict adherence with the National Institutes of Health Guide for the Care and Use of Laboratory Animals and were approved by the Institutional Animal Care and Use Committee of The Scripps Research Institute.
Mice were anesthetized by inhalation of 1-3% isoflurane in oxygen and silastic catheters were inserted into the jugular veins. Briefly, the catheters consisted of a 6 cm length of silastic tubing fitted to a guide cannula (Plastics One, Wallingford, Conn.), bent at a curved right angle and encased in dental acrylic. The catheter tubing was passed subcutaneously from each animal's back to the right jugular vein, and 1 cm length of the catheter tip was inserted into the vein. After surgery, catheters were flushed daily with 0.1 ml of a heparinized (30 USP units/ml) sterile saline solution. Following 7 d of surgical recovery, mice were mildly food restricted to 85-90% of their free-feeding body weight and trained to press a lever in an operant chamber (Med Associates, St. Albans, Vt.) for food pellets (20 mg; TestDiet, Richmond, Ind.) under a fixed-ratio 5, time out 20-s (FR5TO20 s) schedule of reinforcement […]. Once stable responding was achieved (>25 pellets per session), mice were permitted to acquire IV nicotine self-administration by autoshaping during 1-h daily sessions, 7 days per week. Nicotine was delivered through the tubing into the IV catheter by a Razel syringe pump (Med Associates). […] After 1 week, the nicotine dose was increased to 0.1 mg/kg/inf for the remainder of the experiment, including subsequent training and test sessions. […] During the TO period, responding on the lever was recorded but without scheduled consequence. […]
For Hcrt-R1 re-expression studies, the human Hcrt-R1 gene was cloned into the pCDF1 lentivirus expression vector containing copGFP (GFP cloned from copepod Pontellina plumata) from Systems Biosciences. […] Viral supernatant titres were determined using the Lentivector Rapid Titer Kit from System Biosciences, according to the manufacturer's instructions. […]

[3] = tested on: rats; assay: Nicotine self-administration assay (rats), with food responding; type: in vivo; conditions: several doses
Description: For all experiments, rats weighing 250-300 g were housed in groups of […] per cage, in a temperature-controlled vivarium under a reversed 12-h light/dark cycle (lights off at 8 am). Food and water were provided ad libitum until behavioral training commences. During training, rats were food-restricted to maintain ˜85-90% of their free-feeding body weight. Behavioral testing occurred during the dark portion of the light/dark cycle between the hours of 9 am-1 pm, during the early portion of the dark phase of the cycle. All procedures were conducted in strict adherence with the National Institutes of Health Guide for the Care and Use of Laboratory Animals and are approved by the Institutional Animal Care and Use Committee of The Scripps Research Institute.
Rats were anesthetized by inhalation of 1-3% isoflurane in oxygen and silastic catheters were inserted into the jugular veins. Briefly, the catheters consist of a 14 cm length of silastic tubing fitted to a guide cannula (Plastics One, Wallingford, Conn.), bent at a curved right angle and encased in dental acrylic. The catheter tubing was passed subcutaneously from each animal's back to the right jugular vein, and 1 cm length of the catheter tip was inserted into the vein. […] During the TO period, responding on the lever was recorded but without scheduled consequence. […]

[4] = target: T2, CYP3A4 (Homo sapiens, UniProt P08684); assay: Cytochrome P450 inhibition assay (midazolam hydroxylation); type: in vitro ADME; conditions: human, human liver microsomes, probe midazolam (hydroxylation to 1′-hydroxymidazolam), 10 μM test compound, midazolam at approximately its Km
T2 construct: pre-incubated with human liver microsomes and NADPH; from tissue; host or cells: human liver microsomes
Summary of the method: (§1)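 Percent inhibition of midazolam 1′-hydroxylation by 10 μM compound was measured, midazolam dosed at about Km. Time-dependent inhibition was probed by a 30 min preincubation of compound with human liver microsomes and NADPH ahead of substrate, compared against samples without preincubation.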

[5] = target: T3, cytochrome P450 3A4 isoform (Homo sapiens, UniProt P08684); assay: as above; type: in vitro ADME; conditions: 10 μM test compound, midazolam at approximately its Km, human liver microsomes
T3 construct: pre-incubated with human liver microsomes and NADPH; from tissue; host or cells: human liver microsomes
Summary of the method: as §1

[6] = CHO-OX1 cells, [Ca2+]i by FLIPR, antagonist dose-range 0.1 nM-10 μM, EC90 of OXA, read-out: OX1

T3 sequence (P08684 whole entry, canonical isoform): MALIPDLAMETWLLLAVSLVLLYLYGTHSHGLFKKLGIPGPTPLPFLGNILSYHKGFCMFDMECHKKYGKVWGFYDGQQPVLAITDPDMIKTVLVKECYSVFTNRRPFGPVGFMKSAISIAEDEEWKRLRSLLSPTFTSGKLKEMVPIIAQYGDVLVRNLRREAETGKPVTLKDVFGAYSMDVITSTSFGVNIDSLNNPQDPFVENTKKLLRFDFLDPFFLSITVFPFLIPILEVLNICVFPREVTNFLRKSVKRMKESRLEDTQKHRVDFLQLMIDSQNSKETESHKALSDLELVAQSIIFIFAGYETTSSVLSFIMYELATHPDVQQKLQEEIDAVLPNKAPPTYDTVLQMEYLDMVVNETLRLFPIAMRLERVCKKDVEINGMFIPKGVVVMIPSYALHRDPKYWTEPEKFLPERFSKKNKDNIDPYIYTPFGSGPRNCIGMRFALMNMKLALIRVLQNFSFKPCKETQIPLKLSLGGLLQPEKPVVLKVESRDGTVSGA
T2 sequence (P08684 whole entry): as the sequence (P08684 whole entry, canonical isoform) above

Compound: Cc1nc(C(=O)N2CCC[C@@H](C)[C@H]2CNc2ccc(C(F)(F)F)cn2)c(-c2ccc(F)cc2)s1 (racemic) [Example 11, rac-cis-(5-(4-Fluorophenyl)-2-methylthiazol-4-yl)(3-methyl-2-(((5-(trifluoromethyl)pyridin-2-yl)amino)methyl)piperidin-1-yl)methanone]
IC50 ([1]; Table 2, CHO-OX1 cells, EC90 of OXA, read-out: IC50 Bioactivity OX1): 8 nM | IC50 ([1]; Table 6, racemate vs enantiomers, read-out: OX1 IC50): 8 nM | food self-administration (SA) [2]: no effect

Compound: Cc1ccc(-c2cnn(C)c2)c(C(=O)N2CCC[C@@H](C)[C@H]2CNc2ccc(C(F)(F)F)cn2)c1 [Example A1, ((2S,3R)-3-Methyl-2-(((5-(trifluoromethyl)pyridin-2-yl)amino)methyl)piperidin-1-yl)(5-methyl-2-(1-methyl-1H-pyrazol-4-yl)phenyl)methanone]
food intake [3]: does not have a significant effect | nicotine self-administration [3]: dose-dependent reduction | inhibition at 10 µM [4]: 98%

Compound: CC1(C)OC[C@H](NC(=O)Nc2ccc(Br)cc2Br)[C@H](c2ccccc2)O1 [JNJ10397049]
food self-administration (SA) [2]: no effect | nicotine SA ([2]; KO mice): marginal decrease | nicotine SA ([2]; WT mice): no effect

Next, values leading:

IC50 [1, 6]: 20 nM | % CYP3A4 Inhibition ([5]; 10 µM): 96%
Compound: Cc1ccc(-c2cnn(C)c2)c(C(=O)N2CCC[C@@H](C)[C@H]2CNc2nc3cc(Cl)ccc3o2)c1 [Example A40, ((2S,3R)-2-(((5-Chlorobenzo[d]oxazol-2-yl)amino)methyl)-3-methylpiperidin-1-yl)(5-methyl-2-(1-methyl-1H-pyrazol-4-yl)phenyl)methanone]

IC50 [1, 6]: 5 nM | % CYP3A4 Inhibition ([5]; 10 µM): 53%
Compound: Cc1ccc(-n2nccn2)c(C(=O)N2CCC[C@@H](C)[C@H]2CNc2ccc(C#N)cn2)c1 [Example A46, 6-((((2S,3R)-3-Methyl-1-(5-methyl-2-(2H-1,2,3-triazol-2-yl)benzoyl)piperidin-2-yl)methyl)amino)nicotinonitrile]

IC50 [1, 6]: 5 nM | % CYP3A4 Inhibition [5]: 50%
Compound: C[C@@H]1CCCN(C(=O)c2cccc(F)c2-c2ncccn2)[C@@H]1CNc1ncc(C(F)(F)F)cn1 [Example A230, (3-Fluoro-2-(pyrimidin-2-yl)phenyl)((2S,3R)-3-methyl-2-(((5-(trifluoromethyl)pyrimidin-2-yl)amino)methyl)piperidin-1-yl)methanone]

IC50 [1, 6]: 8 nM | % CYP3A4 Inhibition [5]: 65%
Compound: C[C@@H]1CCCN(C(=O)c2cccc(F)c2-c2ncccn2)[C@@H]1CNc1ccc(Cl)cn1 [Example A232, ((2S,3R)-2-(((5-chloropyridin-2-yl)amino)methyl)-3-methylpiperidin-1-yl)(3-fluoro-2-(pyrimidin-2-yl)phenyl)methanone]

IC50 [1, 6]: 24 nM | % CYP3A4 Inhibition [5]: 87%
Compound: C[C@@H]1CCCN(C(=O)c2cc(F)c(F)cc2-c2ncccn2)[C@@H]1CNc1ccc(C(F)(F)F)cn1 [Example A242, (4,5-Difluoro-2-(pyrimidin-2-yl)phenyl)((2S,3R)-3-methyl-2-(((5-(trifluoromethyl)pyridin-2-yl)amino)methyl)piperidin-1-yl)methanone]
